Test results as given in patent US7671061B2, “Methods and compositions for treating pain” (Hydra Biosciences, Inc., priority 2005, dated 2010).

molecular target: T1, hTRPA1 (Homo sapiens, UniProt O75762, K186N); experiment: TRPA1 patch clamp (perforated patch, AITC-activated current); type: cell-based; settings: Table 1; read-out: hTRPA1 Patch IC50
T1 construct: expressed in transfected cells; host or cells: HEK293/TREx (Invitrogen), induced with tetracycline
From the text: Patch clamp experiments permit the detection of currents through the TRPA1 channel in the cell line described above. To permit recording of current at a stable level and prevent the “rundown” observed by other labs, it is necessary to use the perforated patch technique, which prevents dialysis of the cytoplasm with the pipette solution. In normal whole-cell patch clamp recordings, a glass electrode is brought into contact with a single cell and a high-resistance (gigaohm) seal is established with the cell membrane. The membrane is then ruptured to achieve the whole-cell configuration, permitting control of the voltage of the cell membrane and measurement of currents flowing across the membrane using the amplifier attached to the electrode and resulting in the replacement of cytoplasm with the pipette solution. In contrast, in the perforated patch mode, an antibiotic, amphotericin, is present in the pipette solution and diffuses into contact with the cell after the seal is achieved, over the course of several minutes. The amphotericin forms ion-permeable pores in the membrane under the pipette, permitting passage of some ions but maintaining most native cytosolic components. A perfusion system permits control of the extracellular solution, including the addition of blockers and activators of the current. The current can be activated by addition of 5 μM AITC to the solution. […] In some cases, cells were grown in low density overnight on glass coverslips. Patch clamp recordings were made in the whole-cell mode with a holding potential of −40 mV. Every 5 seconds, a voltage ramp was applied from −120 to +100 mV, 400 ms in duration. Currents elicited were quantified at −80 mV and +80 mV. […] The external solution consisted of 150 mM NaCl, 4.5 mM KCl, 3 mM MgCl2, 10 mM HEPES, […], 1 mM EGTA, pH 7.4. Upon addition of AITC, TRPA1 current was induced only in TRPA1-expressing cells and not in parental HEK293 TREx cells. Removal of the AITC stimulus causes most of the current to go away. Potential blockers were tested for ability to block both inward and outward currents in the continued presence of AITC.

T1 sequence (O75762 whole entry K186N): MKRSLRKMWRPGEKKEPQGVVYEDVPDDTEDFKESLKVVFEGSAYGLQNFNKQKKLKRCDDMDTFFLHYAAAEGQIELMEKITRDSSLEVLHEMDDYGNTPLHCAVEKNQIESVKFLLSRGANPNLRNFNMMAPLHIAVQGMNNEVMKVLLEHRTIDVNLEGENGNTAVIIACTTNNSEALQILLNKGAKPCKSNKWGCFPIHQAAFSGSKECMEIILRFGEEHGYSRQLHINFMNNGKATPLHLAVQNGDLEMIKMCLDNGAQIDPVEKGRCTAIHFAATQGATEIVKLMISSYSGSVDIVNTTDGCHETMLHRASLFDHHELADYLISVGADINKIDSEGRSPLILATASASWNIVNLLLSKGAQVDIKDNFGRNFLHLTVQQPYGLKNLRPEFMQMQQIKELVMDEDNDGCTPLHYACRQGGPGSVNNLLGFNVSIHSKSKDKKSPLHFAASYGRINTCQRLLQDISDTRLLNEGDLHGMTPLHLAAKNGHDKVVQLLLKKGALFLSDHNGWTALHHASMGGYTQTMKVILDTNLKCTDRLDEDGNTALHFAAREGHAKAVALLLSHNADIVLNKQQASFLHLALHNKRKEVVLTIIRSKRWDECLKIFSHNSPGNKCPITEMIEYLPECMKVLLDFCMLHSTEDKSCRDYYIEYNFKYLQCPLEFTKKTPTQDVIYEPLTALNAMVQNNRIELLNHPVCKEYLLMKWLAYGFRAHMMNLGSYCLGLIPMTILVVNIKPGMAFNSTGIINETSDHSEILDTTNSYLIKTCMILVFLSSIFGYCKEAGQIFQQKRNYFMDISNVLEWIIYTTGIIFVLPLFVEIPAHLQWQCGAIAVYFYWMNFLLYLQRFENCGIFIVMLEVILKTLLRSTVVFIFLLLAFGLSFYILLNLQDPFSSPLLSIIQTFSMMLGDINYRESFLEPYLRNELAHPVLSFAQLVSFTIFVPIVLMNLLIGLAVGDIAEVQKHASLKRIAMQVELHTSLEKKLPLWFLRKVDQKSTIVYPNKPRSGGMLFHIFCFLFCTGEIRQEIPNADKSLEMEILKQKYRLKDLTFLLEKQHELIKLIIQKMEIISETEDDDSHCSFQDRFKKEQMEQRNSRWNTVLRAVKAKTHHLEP

Compound	IC50 [µM]
CCOC(=O)C1=C(c2ccccc2)NC(=S)NC1c1cc(O)ccc1Br (stereo not shown) [drawing 265]	≤ 0.5
COC(=O)C1=C(c2ccccc2)NC(=S)NC1c1ccc(OC)c(OC)c1 (stereo not shown)	≤ 10

same assay, conditions: Table 2; inward current; read-out: hTRPA1 Patch Inwd IC50

Compound	IC50 [µM]
Cn1c(=O)c2c(ncn2CC(=O)NCCc2ccc(Cl)c(Cl)c2)n(C)c1=O [Compound 396, N-[2-(3,4-Dichlorophenyl)-ethyl]-2-(1,3-dimethyl-2,6-dioxo-1,2,3,6-tetrahydro-purin-7-yl)-acetamide]	≤ 1
COc1ccc(CCCNC(=O)Cn2cnc3c2c(=O)n(C)c(=O)n3C)cc1 [Compound 401, 2-(1,3-Dimethyl-2,6-dioxo-1,2,3,6-tetrahydropurin-7-yl)-N-[3-(4-methoxy-phenyl)-propyl]-acetamide]	≤ 5
Cn1c(=O)c2c(ncn2CC(=O)NCCc2ccccc2Cl)n(C)c1=O [Compound 405, N-(2-chlorophenethyl)-2-(1,3-dimethyl-2,6-dioxo-1,2,3,6-tetrahydropurin-7-yl)acetamide]	≤ 10
CC(C)c1ccc(NC(=O)Cn2cnc3[nH]c(=O)n(C)c(=O)c32)cc1 [Compound 391, N-(4-isopropylphenyl)-2-(1-methyl-2,6-dioxo-1,2,3,6-tetrahydropurin-7-yl)acetamide]	≤ 10
CC(C)c1ccc(N(C)C(=O)Cn2cnc3[nH]c(=O)n(C)c(=O)c32)cc1 [Compound 392, N-(4-isopropylphenyl)-N-methyl-2-(1-methyl-2,6-dioxo-1,2,3,6-tetrahydropurin-7-yl)acetamide]	> 10
Cn1c(=O)c2c(ncn2CC(=O)NCCc2ccc(C#N)cc2)n(C)c1=O [Compound 409, N-[2-(4-Cyanophenyl)-ethyl]-2-(1,3-dimethyl-2,6-dioxo-1,2,3,6-tetrahydro-purin-7-yl)-acetamide]	≤ 10
Cc1cccc(CCNC(=O)Cn2cnc3c2c(=O)n(C)c(=O)n3C)c1 [Compound 407, 2-(1,3-Dimethyl-2,6-dioxo-1,2,3,6-tetrahydropurin-7-yl)-N-[2-(3-methyl-phenyl)-ethyl]-acetamide]	≤ 10
COc1ccc(Cl)cc1NC(=O)Cn1cnc2c1c(=O)n(C)c(=O)n2C [Compound 285]	≤ 5
Cn1c(=O)c2c(ncn2CC(=O)Nc2ccc3c(c2)CCC3)n(C)c1=O [Compound 240]	≤ 5
CC(C)c1ccc(NC(=O)Cn2cnc3[nH]c(=O)[nH]c(=O)c32)cc1 [Compound 399, 2-(2,6-dioxo-1,2,3,6-tetrahydropurin-7-yl)-N-(4-isopropylphenyl)acetamide]	≤ 10

molecular target: T1, hTRPA1; experiment: High throughput Ca2+ fluorescence (Fluo4) assay, AITC stimulation; type: cell-based; settings: Table 1; read-out: hTRPA1 Fluo4 IC50
Summary of the method: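 Read-out is Fluo4 fluorescence, proportional to [Ca2+]i, over ~3 min after AITC challenge, following 2 min compound pre-exposure in HEK293/TREx cells induced with 1 μg/ml tetracycline. Dye: 1 μM, 60 min, room temperature.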

Compound	IC50 [µM]
COC(=O)C1=C(CN2CCCC2)NC(=O)NC1c1cc(C)ccc1C (stereo not shown)	> 10
CCN1C(=O)NC(c2ccc(Cl)cc2Cl)C(C(=O)OC)=C1C (stereo not shown)	> 10
CCOc1ccc(C2NC(=S)NC(C)=C2C(=O)OC(C)C)cc1 (stereo not shown)	> 10
CCOC(=O)C1=C(CN2CCC(C)CC2)NC(=O)NC1c1ccc(Cl)cc1 (stereo not shown)	> 10
CC1=C(C(=O)OCC(C)C)C(c2ccccc2C(F)(F)F)NC(=O)N1 (stereo not shown)	≤ 5
CCOC(=O)C1=C(C)N(C)C(=O)NC1c1cccc(Cl)c1Cl (stereo not shown)	> 10
COCCOC(=O)C1=C(C)NC(=S)NC1c1cccc(Br)c1 (stereo not shown)	> 10
CCOC(=O)C1=C(C)NC(=S)NC1c1ccc(OC(C)C)cc1 (stereo not shown)	> 10
CCOC(=O)C1=C(c2ccccc2)NC(=O)NC1c1ccccc1F (stereo not shown)	> 10
COc1cc(OC)c(C2NC(=S)NC(C)=C2C(=O)N(C)C)cc1Br (stereo not shown)	> 10
C=CCOC(=O)C1=C(C)NC(=O)NC1c1ccc(CC)cc1 (stereo not shown)	> 10
CC1=C(C(=O)OC2CCCC2)C(c2ccc(C)c(Br)c2)NC(=O)N1 (stereo not shown)	> 10
C=CCOC(=O)C1=C(C)NC(=O)NC1c1c(F)cccc1Cl (stereo not shown)	> 10
CCOC(=O)C1=C(C)NC(=S)NC1c1ccc(C)cc1C (stereo not shown)	> 10
CCOC(=O)C1=C(C)NC(=S)NC1c1ccc(O)c(OC)c1 (stereo not shown)	≤ 10
CC1=C(C(=O)OCC2CCCCC2)C(c2ccccc2F)NC(=O)N1 (stereo not shown)	> 10
COC(=O)C1=C(C)NC(=S)NC1c1cc(OC)ccc1Br (stereo not shown)	≤ 5

Compound	IC50 [µM]
CCCCOC(=O)C1=C(C)NC(=O)NC1c1ccc(C)cc1 (stereo not shown)	> 10
CCOc1ccccc1C1NC(=O)NC(C)=C1C(=O)OC (stereo not shown)	> 10
CC1=C(C(=O)Nc2ccccc2)C(c2ccc(F)cc2)NC(=S)N1 (stereo not shown)	≥ 30
COC(=O)C1=C(C)N(C)C(=O)NC1c1cccc(Cl)c1 (stereo not shown)	> 10
CC1=C(C(=O)OCC(F)(F)F)C(c2ccc(N(C)C)cc2)NC(=O)N1 (stereo not shown)	> 10
CCCCCOC(=O)C1=C(C)NC(=S)NC1c1ccccc1 (stereo not shown)	> 10
CC1=C(C(=O)OCc2ccccc2)C(c2cccc(Cl)c2)NC(=O)N1 (stereo not shown)	> 10
CC1=C(C(=O)OCc2ccc(C)cc2)C(c2ccc(N(C)C)cc2)NC(=O)N1 (stereo not shown)	> 10
CC1=C(C(=O)OC(C)(C)C)C(c2ccccc2Cl)NC(=O)N1 (stereo not shown)	> 10
CC1=C(C(=O)OC(C)C)C(c2c(Cl)cccc2Cl)NC(=O)N1 (stereo not shown)	> 10
CC1=C(C(=O)OC(C)C)C(c2ccc(C(C)(C)C)cc2)NC(=O)N1 (stereo not shown)	> 10
CCCC1=C(C(=O)OCC)C(c2ccc(Cl)cc2Cl)NC(=O)N1 (stereo not shown)	> 10
CCOC(=O)C1=C(C)NC(=S)NC1c1ccc(CC)cc1 (stereo not shown)	> 10
CC1=C(C(=O)OCc2ccccc2)C(c2c(F)cccc2Cl)NC(=O)N1 (stereo not shown)	> 10
CC1=C(C(=O)OCC(F)(F)F)C(c2ccc(Br)cc2)NC(=O)N1 (stereo not shown)	> 10
CCOC(=O)C1=C(c2ccccc2)NC(=O)NC1c1ccc(CC)cc1 (stereo not shown)	≤ 10
CCCC1=C(C(=O)OCC)C(c2ccc([N+](=O)[O-])cc2)NC(=O)N1C (stereo not shown)	> 10

same assay, conditions: Table 2; read-out: hTRPA1 Fluor IC50

Compound	IC50 [µM]
Cn1c(=O)c2c(ncn2CC(=O)Nc2cccnc2)n(C)c1=O [Compound 367]	> 10
Cn1c(=O)c2c(ncn2CC(=O)Nc2ccc(Cl)cc2F)n(C)c1=O [Compound 304]	≤ 5
Cn1c(=O)c2c(ncn2CC(=O)Nc2ccccc2N2CCOCC2)n(C)c1=O [Compound 248]	> 10
Cn1c(=O)c2c(ncn2CC(=O)NCc2ccco2)n(C)c1=O [Compound 368]	> 10
CC(NC(=O)Cn1cnc2c1c(=O)n(C)c(=O)n2C)c1ccc2c(c1)OCCO2 (stereo not shown) [Compound 310]	> 10
CC(C(=O)Nc1cccc(C(F)(F)F)c1)n1cnc2c1c(=O)n(C)c(=O)n2C (stereo not shown) [Compound 318]	> 10
Cn1c(=O)c2c(ncn2CC(=O)NCc2ccc3c(c2)OCO3)n(C)c1=O [Compound 377]	> 10
CC(C(=O)Nc1ccc2c(c1)OCO2)n1cnc2c1c(=O)n(C)c(=O)n2C (stereo not shown) [Compound 331]	> 10
Cn1c(=O)c2c(ncn2CC(=O)Nc2ccc(F)c(F)c2)n(C)c1=O [Compound 245]	≤ 10
Cc1ccnc(NC(=O)Cn2cnc3c2c(=O)n(C)c(=O)n3C)c1 [Compound 370]	> 10
Cn1c(=O)c2c(ncn2CC(=O)NCc2ccccn2)n(C)c1=O [Compound 243]	> 10
CC(C)NC(=O)c1ccccc1NC(=O)Cn1cnc2c1c(=O)n(C)c(=O)n2C [Compound 385]	> 10
CC(CCc1ccccc1)NC(=O)Cn1cnc2c1c(=O)n(C)c(=O)n2C (stereo not shown) [Compound 379]	> 10
Cc1nc(-c2ccc(CCNC(=O)Cn3cnc4c3c(=O)n(C)c(=O)n4C)cc2)cs1 [Compound 353]	≤ 5
CSc1ccccc1NC(=O)Cn1cnc2c1c(=O)n(C)c(=O)n2C [Compound 316]	> 10
Cn1c(=O)c2c(ncn2CC(=O)NCC(c2cccs2)N2CCCC2)n(C)c1=O (stereo not shown) [Compound 312]	> 10
Cn1c(=O)c2c(ncn2CC(=O)NCC(c2ccccc2)N2CCCC2)n(C)c1=O (stereo not shown) [Compound 321]	> 10
Cc1cc(Cl)ccc1NC(=O)Cn1cnc2c1c(=O)n(C)c(=O)n2C [Compound 298]	> 10
CSc1ccccc1NC(=O)CN(C)C(=O)Cn1cnc2c1c(=O)n(C)c(=O)n2C [Compound 311]	> 10
CC(NC(=O)Cn1cnc2c1c(=O)n(C)c(=O)n2C)c1ccc(-n2ccnc2)cc1 (stereo not shown) [Compound 325]	≥ 20
CCN(C(=O)Cn1cnc2c1c(=O)n(C)c(=O)n2C)c1ccc(F)cc1 [Compound 291]	≤ 5
CC(C(=O)Nc1ccccc1F)n1cnc2c1c(=O)n(C)c(=O)n2C (stereo not shown) [Compound 334]	> 10
Cc1ccc(NC(=O)Cn2cnc3c2c(=O)n(C)c(=O)n3C)cc1F [Compound 306]	> 10
Cc1cc([N+](=O)[O-])ccc1NC(=O)Cn1cnc2c1c(=O)n(C)c(=O)n2C [Compound 227]	≥ 30
